pIC50, pKi: −log10 of the molar value. In brackets after ≈: the same amount, converted by molar mass. Entries after “also recorded” stand apart in the source; their conditions may differ. Where two headings read alike, the source gives them in different places.
Key:
[1] = molecular target: TFR-PR^S17 precursor, p6pol/PR^S17 site (Human immunodeficiency virus type 1, UniProt P12497, E523D/G536V/I542V/L578M/M524I/M534L/N525D/V570S, form not given); format: biochemical, HIV-1; details: for Inhibition of autoprocessing of TFR-PR^S17, initial screening: after 60 min, overall autoprocessing; for Inhibition of the p6pol/PR site / Autoprocessing in the presence of inhibitor: 60 min
wild-type PR = details: read-out: Inhibition of PR Ki, published sources, similar values from different sources averaged, ref [48]–[50],[30]; cited from earlier work
physchem = details: pH 5, aqueous buffer
[2] = molecular target: TFR-PR^S17 precursor, TFP/p6pol site (Human immunodeficiency virus type 1, UniProt P12497, E523D/G536V/I542V/L578M/M524I/M534L/N525D/V570S, form not given); format: biochemical, HIV-1; details: 60 min
TFR-PR20 = details: up to 150 μM inhibitor, expressed in E. coli; ref [16]; cited from earlier work
[3] = test system: wild type TFR-PR precursor; details: read-out: IC50 for inhibition of autoprocessing of the wild type precursor; during expression in E. coli; ref [16]; cited from earlier work
[4] = test system: TFR-PR^S17 precursor, p6pol/PR^S17 site; format: biochemical, HIV-1; details: p6pol/PR^S17 site
mature PR^S17 [5] = test system: mature PR^S17
PR20 = details: read-out: Ki for PR20; ref [34]; cited from earlier work
mature PR^S17 [6] = format: biochemical, HIV-1; details: Ki for PR^S17 (kinetics) / Ki for PR
[7] = inhibitor 70 μM (limit of solubility)

For `Cc1cccc(C)c1OCC(=O)N[C@@H](Cc1ccccc1)[C@@H](O)C[C@H](Cc1ccccc1)NC(=O)[C@H](C(C)C)N1CCCNC1=O` [LPV, lopinavir], the “Inhibition of autoprocessing of TFR-PR^S17, initial screening” value (“Inhibition … initial screening” for short) ([1]; inhibitor 50 μM) is listed as “almost no inhibition”, the “Inhibition of the p6pol/PR site” value [1, 7] is listed as ~ 50% and the pKi (wild-type PR) is listed as 10.70. For the same compound, the solubility (physchem) was 70 µM (≈ 44 µg/mL) and the “Inhibition of the TFP/p6pol site” value [2, 7] was “insignificant inhibition”.
In the case of `CC(C)(C)NC(=O)[C@@H]1C[C@@H]2CCCC[C@@H]2CN1C[C@@H](O)[C@H](Cc1ccccc1)NC(=O)[C@H](CC(N)=O)NC(=O)c1ccc2ccccc2n1` [SQV, saquinavir], the “Inhibition … initial screening” value ([1]; inhibitor 50 μM) is listed as “almost no inhibition”, the “Inhibition of autoprocessing of the PR20 precursor” value (TFR-PR20) is listed as “no inhibition; also recorded: not inhibited” and the pKi (wild-type PR) is listed as 9.41. For the same compound, the pIC50 [3] was 5.70 to 6.00.
In the case of `CC(C)CN(C[C@@H](O)[C@H](Cc1ccccc1)NC(=O)O[C@H]1CO[C@H]2OCC[C@H]21)S(=O)(=O)c1ccc(N)cc1` [DRV, darunavir], the “Inhibition … initial screening” value ([1]; inhibitor 50 μM) is given as “almost complete inhibition”, the “Inhibition of autoprocessing of the PR20 precursor” value (TFR-PR20) is given as “no inhibition; also recorded: not inhibited” and the pKi (wild-type PR) is given as 11.30. The pIC50 [3] was 5.70 to 6.00.
In the case of `CC(C)CN(C[C@@H](O)[C@H](Cc1ccccc1)NC(=O)O[C@H]1CCOC1)S(=O)(=O)c1ccc(N)cc1` [APV, amprenavir], the “Difference in inhibition [autoprocessing, IC50/mature PR^S17, Ki]” value [4] was 682, the “Autoprocessing in the presence of inhibitor” value ([1]; inhibitor 5 μM) was “complete autoprocessing” and the “Inhibition … initial screening” value ([1]; inhibitor 50 μM) was “almost complete inhibition”. The pKi (wild-type PR) was 9.70, the “Fold higher affinity for PR^S17 relative to PR20” value (mature PR^S17 [5]) was 16 fold and the “Relative resistance (PR^S17/PR)” value (mature PR^S17 [5]; Ki for PR^S17 (ITC) / Ki for PR) was 55. For the same compound, the pKi (PR20) was ~6.75.
With `CC(C)c1nc(CN(C)C(=O)N[C@H](C(=O)N[C@@H](Cc2ccccc2)C[C@H](O)[C@H](Cc2ccccc2)NC(=O)OCc2cncs2)C(C)C)cs1` [RTV, ritonavir] the “Inhibition … initial screening” value ([1]; inhibitor 50 μM) was “almost no inhibition”.
In the case of `CC(C)(C)NC(=O)[C@@H]1CN(Cc2cccnc2)CCN1C[C@@H](O)C[C@@H](Cc1ccccc1)C(=O)N[C@H]1c2ccccc2C[C@H]1O` [IDV, indinavir], the “Inhibition of the p6pol/PR site” value ([1]; inhibitor 50 μM) is given as ~ 50%, the “Inhibition … initial screening” value ([1]; inhibitor 50 μM) is given as “partial inhibition” and the pKi (wild-type PR) is given as 9.60. For the same compound, the “Inhibition of the TFP/p6pol site” value ([2]; inhibitor 50 μM) was “insignificant inhibition”.
In the case of `Cc1c(O)cccc1C(=O)N[C@@H](CSc1ccccc1)[C@H](O)CN1C[C@H]2CCCC[C@H]2C[C@H]1C(=O)NC(C)(C)C` [NFV, nelfinavir], the “Difference in inhibition [autoprocessing, IC50/mature PR^S17, Ki]” value [4] is given as >7.2, the pKi (wild-type PR) is given as 9.44 and the solubility (physchem) is given as 42 µM (≈ 23.8 µg/mL). The “Relative resistance (PR^S17/PR)” value (mature PR^S17 [6]) was 16300.
For `COC(=O)N[C@H](C(=O)N[C@@H](Cc1ccccc1)[C@@H](O)CN(Cc1ccc(-c2ccccn2)cc1)NC(=O)[C@@H](NC(=O)OC)C(C)(C)C)C(C)(C)C` [ATV, atazanavir], the “Difference in inhibition [autoprocessing, IC50/mature PR^S17, Ki]” value [4] is listed as 214, the “Autoprocessing in the presence of inhibitor” value ([1]; inhibitor 10 μM) is listed as “complete autoprocessing” and the pKi (wild-type PR) is listed as 10.46. The solubility (physchem) was 42 µM (≈ 29.6 µg/mL) and the “Relative resistance (PR^S17/PR)” value (mature PR^S17 [6]) was 2000.
